Source: PMC12168975 (Drug Design, Development and Therapy, 2025)
Where a name gives a salt, the structure may show the parent alone. Read-outs that look alike come from different tables or passages of the source.

Columns and labels:
[1] = Pharmacokinetic drug-drug interaction study of BBR, TOFA and FIGA in rats; format: in vivo, Sprague-Dawley rats
[2] = Stability of simulated plasma; format: physicochemical, rat; settings: simulated plasma samples; freeze-thaw cycles, room temperature storage and autosampler storage; found to be stable
[3] = cited from earlier work
[4] = poor solubility and permeability; cited from earlier work
[5] = cited from earlier work; remark: listed apart in the source
[6] = FIGA combined with berberine hydrochloride compared to FIGA alone
[7] = FIGA co-administered with itraconazole
[8] = FIGA co-administered with rifampin
[9] = TOFA combined with BBR compared to TOFA alone

## COc1ccc2cc3[n+](cc2c1OC)CCc1cc2c(cc1-3)OCO2 [BBR, berberine hydrochloride]
[1]; BBR with vs without TOFA or FIGA
  effect of concomitant TOFA and FIGA on the pharmacokinetic parameters of BBR: no significant differences
[2]
  relative errors (RE %) of stability assessment: less than 15.0%
[3]; ref 20
  oral bioavailability: 5%
[3]; ref 35
  oral bioavailability: lower than 5%
[4]
  Biopharmaceutics Classification System class: Class IV

## O=C(Nc1nc2cccc(-c3ccc(CN4CCS(=O)(=O)CC4)cc3)n2n1)C1CC1 [FIGA, Filgotinib]
[1]; [6]
  decrease in CL: 1.64 fold
  decrease in Tmax: 2.09 fold
  increase in AUC(0-t): 1.67 fold
  increase in Cmax: 2.26 fold
[2]
  relative errors (RE %) of stability assessment: less than 15.0%
[5]; [7]
  increase of Cmax: 64%
  increase of bioavailability: 45%
[5]; [8]
  reduction of Cmax: 26%
  reduction of bioavailability: 27%

## C[C@@H]1CCN(C(=O)CC#N)C[C@@H]1N(C)c1ncnc2[nH]ccc12 [TOFA, Tofacitinib]
[1]; [9]
  decrease in AUC(0-t): 1.76 fold
  increase in CL: 1.63 fold
  increase in time to peak concentration: 2.49 fold
[2]
  relative errors (RE %) of stability assessment: less than 15.0%
